# Data: PubChem BioAssay AID2060341 (Molecular Pharmacology Branch, DTP, NCI, 2025)
# System: 327498-153-R-J2-PDC multicell spheroid viability
# Experiment: Anticancer human tumor 327498-153-R-J2-PDC patient-derived uterine carcinosarcoma cell line growth inhibition [IpAb]
# Conditions: for IC50: curve of first compound; for viability, T/C: stronger effect = lower value
# In short: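 Combinations with ipatasertib or abemaciclib were tested on tumour spheroids holding HUVEC (25%) and MSC (15%) alongside 60% malignant cells. Top concentration was at or near clinical Cmax (10 microM if undefined), descending in half-log steps.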
# [1] = second compound 0.01 µM, first compound 0.0316 µM
# [2] = second compound 0.01 µM, first compound 0.1 µM
# [3] = second compound 0.01 µM, first compound 0.316 µM
# [4] = second compound 0.01 µM, first compound 1 µM
# [5] = second compound 0.01 µM, first compound 3.16 µM
# [6] = second compound 0.01 µM, first compound 10 µM
# [7] = second compound 0.0316 µM, first compound 0.0316 µM
# [8] = second compound 0.0316 µM, first compound 0.1 µM
# [9] = second compound 0.0316 µM, first compound 0.316 µM
# [10] = second compound 0.0316 µM, first compound 1 µM
# [11] = second compound 0.0316 µM, first compound 3.16 µM
# [12] = second compound 0.0316 µM, first compound 10 µM
# [13] = second compound 0.1 µM, first compound 0.0316 µM
# [14] = second compound 0.1 µM, first compound 0.1 µM
# [15] = second compound 0.1 µM, first compound 0.316 µM
# [16] = second compound 0.1 µM, first compound 1 µM
# [17] = second compound 0.1 µM, first compound 3.16 µM
# [18] = second compound 0.1 µM, first compound 10 µM
# [19] = second compound 0.316 µM, first compound 0.0316 µM
# [20] = second compound 0.316 µM, first compound 0.1 µM
# [21] = second compound 0.316 µM, first compound 0.316 µM
# [22] = second compound 0.316 µM, first compound 1 µM
# [23] = second compound 0.316 µM, first compound 3.16 µM
# [24] = second compound 0.316 µM, first compound 10 µM
# [25] = second compound 1 µM, first compound 0.0316 µM
# [26] = second compound 1 µM, first compound 0.1 µM
# [27] = second compound 1 µM, first compound 0.316 µM
# [28] = second compound 1 µM, first compound 1 µM
# [29] = second compound 1 µM, first compound 3.16 µM
# [30] = second compound 1 µM, first compound 10 µM
# 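Also: spheroids exposed to agents for 7 days.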
# 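For viability, T/C in this document: 100% = DMSO vehicle control viability.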
smiles,measurement,setting,value
C=CCn1c(=O)c2cnc(Nc3ccc(N4CCN(C)CC4)cc3)nc2n1-c1cccc(C(C)(C)O)n1 + CCN1CCN(Cc2ccc(Nc3ncc(F)c(-c4cc(F)c5nc(C)n(C(C)C)c5c4)n3)nc2)CC1,IC50,second compound 0.01 µM,0.318 µM
same,IC50,second compound 0.0316 µM,0.261 µM
same,IC50,second compound 0.1 µM,0.222 µM
same,IC50,second compound 0.316 µM,0.25 µM
same,IC50,second compound 1 µM,0.313 µM
same,"viability, T/C",[1],94.3%
same,"viability, T/C",[2],88.5%
same,"viability, T/C",[3],50.6%
same,"viability, T/C",[4],5.09%
same,"viability, T/C",[5],4.75%
same,"viability, T/C",[6],5.85%
same,"viability, T/C",[7],84.4%
same,"viability, T/C",[8],76.9%
same,"viability, T/C",[9],44.9%
same,"viability, T/C",[10],6.81%
same,"viability, T/C",[11],5.01%
same,"viability, T/C",[12],6.96%
same,"viability, T/C",[13],69.1%
same,"viability, T/C",[14],68.5%
same,"viability, T/C",[15],41.9%
same,"viability, T/C",[16],11.1%
same,"viability, T/C",[17],7.8%
same,"viability, T/C",[18],9.75%
same,"viability, T/C",[19],66.2%
same,"viability, T/C",[20],61.1%
same,"viability, T/C",[21],47.3%
same,"viability, T/C",[22],24%
same,"viability, T/C",[23],14.6%
same,"viability, T/C",[24],14.8%
same,"viability, T/C",[25],60.6%
same,"viability, T/C",[26],58.6%
same,"viability, T/C",[27],50.4%
same,"viability, T/C",[28],31.8%
same,"viability, T/C",[29],20.7%
same,"viability, T/C",[30],14.9%
CC(C)n1nc(-c2ccc3oc(N)nc3c2)c2c(N)ncnc21 + CCN1CCN(Cc2ccc(Nc3ncc(F)c(-c4cc(F)c5nc(C)n(C(C)C)c5c4)n3)nc2)CC1,IC50,second compound 0.01 µM,0.00733 µM
same,IC50,second compound 0.0316 µM,0.00458 µM
same,IC50,second compound 0.1 µM,0.00201 µM
same,IC50,second compound 0.316 µM,0.00103 µM
same,IC50,second compound 1 µM,0.00117 µM
same,"viability, T/C","second compound 0.01 µM, first compound 0.000316 µM",90.9%
same,"viability, T/C","second compound 0.01 µM, first compound 0.001 µM",77.3%
same,"viability, T/C","second compound 0.01 µM, first compound 0.00316 µM",68.1%
same,"viability, T/C","second compound 0.01 µM, first compound 0.01 µM",45.6%
same,"viability, T/C",[1],21.2%
same,"viability, T/C",[2],16.1%
same,"viability, T/C","second compound 0.0316 µM, first compound 0.000316 µM",68.7%
same,"viability, T/C","second compound 0.0316 µM, first compound 0.001 µM",73.6%
same,"viability, T/C","second compound 0.0316 µM, first compound 0.00316 µM",53.8%
same,"viability, T/C","second compound 0.0316 µM, first compound 0.01 µM",37.1%
same,"viability, T/C",[7],19.8%
same,"viability, T/C",[8],14.8%
same,"viability, T/C","second compound 0.1 µM, first compound 0.000316 µM",58.2%
same,"viability, T/C","second compound 0.1 µM, first compound 0.001 µM",50.3%
same,"viability, T/C","second compound 0.1 µM, first compound 0.00316 µM",49.8%
same,"viability, T/C","second compound 0.1 µM, first compound 0.01 µM",31.4%
same,"viability, T/C",[13],20.7%
same,"viability, T/C",[14],14.6%
same,"viability, T/C","second compound 0.316 µM, first compound 0.000316 µM",59.2%
same,"viability, T/C","second compound 0.316 µM, first compound 0.001 µM",50.1%
same,"viability, T/C","second compound 0.316 µM, first compound 0.00316 µM",39.5%
same,"viability, T/C","second compound 0.316 µM, first compound 0.01 µM",28.5%
same,"viability, T/C",[19],20.3%
same,"viability, T/C",[20],15.2%
same,"viability, T/C","second compound 1 µM, first compound 0.000316 µM",56.9%
same,"viability, T/C","second compound 1 µM, first compound 0.001 µM",50.8%
same,"viability, T/C","second compound 1 µM, first compound 0.00316 µM",46.3%
same,"viability, T/C","second compound 1 µM, first compound 0.01 µM",35.7%
same,"viability, T/C",[25],23.1%
same,"viability, T/C",[26],19.9%
CC1(C)CCC(CN2CCN(c3ccc(C(=O)NS(=O)(=O)c4ccc(NCC5CCOCC5)c([N+](=O)[O-])c4)c(Oc4cnc5[nH]ccc5c4)c3)CC2)=C(c2ccc(Cl)cc2)C1 + CCN1CCN(Cc2ccc(Nc3ncc(F)c(-c4cc(F)c5nc(C)n(C(C)C)c5c4)n3)nc2)CC1,IC50,second compound 0.01 µM,5.02 µM
same,IC50,second compound 0.0316 µM,5.02 µM
same,IC50,second compound 0.1 µM,4.47 µM
same,IC50,second compound 0.316 µM,3.89 µM
same,IC50,second compound 1 µM,3.56 µM
same,"viability, T/C",[1],100%
same,"viability, T/C",[2],91.6%
same,"viability, T/C",[3],96.6%
same,"viability, T/C",[4],86.9%
same,"viability, T/C",[5],78.4%
same,"viability, T/C",[6],10.2%
same,"viability, T/C",[7],78%
same,"viability, T/C",[8],75.8%
same,"viability, T/C",[9],74.9%
same,"viability, T/C",[10],77.2%
same,"viability, T/C",[11],77.6%
same,"viability, T/C",[12],9.98%
same,"viability, T/C",[13],67.4%
same,"viability, T/C",[14],71.5%
same,"viability, T/C",[15],65.1%
same,"viability, T/C",[16],75.9%
same,"viability, T/C",[17],67.8%
same,"viability, T/C",[18],8.52%
same,"viability, T/C",[19],61.8%
same,"viability, T/C",[20],54.3%
same,"viability, T/C",[21],58.8%
same,"viability, T/C",[22],61.4%
same,"viability, T/C",[23],61.3%
same,"viability, T/C",[24],6.66%
same,"viability, T/C",[25],62.9%
same,"viability, T/C",[26],60.7%
same,"viability, T/C",[27],54.5%
same,"viability, T/C",[28],57.8%
same,"viability, T/C",[29],54.8%
same,"viability, T/C",[30],9.15%
CCCS(=O)(=O)Nc1ccc(F)c(C(=O)c2c[nH]c3ncc(-c4ccc(Cl)cc4)cc23)c1F + CCN1CCN(Cc2ccc(Nc3ncc(F)c(-c4cc(F)c5nc(C)n(C(C)C)c5c4)n3)nc2)CC1,IC50,second compound 0.01 µM,> 10 µM
same,IC50,second compound 0.0316 µM,> 10 µM
same,IC50,second compound 0.1 µM,> 10 µM
same,IC50,second compound 0.316 µM,> 10 µM
same,IC50,second compound 1 µM,> 10 µM
same,"viability, T/C",[1],107%
same,"viability, T/C",[2],105%
same,"viability, T/C",[3],104%
same,"viability, T/C",[4],108%
same,"viability, T/C",[5],98.1%
same,"viability, T/C",[6],97.3%
same,"viability, T/C",[7],81%
same,"viability, T/C",[8],88.7%
same,"viability, T/C",[9],85.6%
same,"viability, T/C",[10],99.5%
same,"viability, T/C",[11],94.2%
same,"viability, T/C",[12],86.9%
same,"viability, T/C",[13],73.4%
same,"viability, T/C",[14],77.8%
same,"viability, T/C",[15],77.2%
same,"viability, T/C",[16],78.5%
same,"viability, T/C",[17],76.6%
same,"viability, T/C",[18],70.8%
same,"viability, T/C",[19],70.6%
same,"viability, T/C",[20],70.2%
same,"viability, T/C",[21],63.8%
same,"viability, T/C",[22],76.1%
same,"viability, T/C",[23],73.1%
same,"viability, T/C",[24],70.4%
same,"viability, T/C",[25],58.9%
same,"viability, T/C",[26],70.9%
same,"viability, T/C",[27],72.8%
same,"viability, T/C",[28],68.3%
same,"viability, T/C",[29],68.3%
same,"viability, T/C",[30],63.2%
Cn1cnc2c(F)c(Nc3ccc(Br)cc3Cl)c(C(=O)NOCCO)cc21 + CCN1CCN(Cc2ccc(Nc3ncc(F)c(-c4cc(F)c5nc(C)n(C(C)C)c5c4)n3)nc2)CC1,IC50,second compound 0.01 µM,0.19 µM
same,IC50,second compound 0.0316 µM,0.0195 µM
same,IC50,second compound 0.1 µM,< 0.00949 µM
same,IC50,second compound 0.316 µM,< 0.00949 µM
same,IC50,second compound 1 µM,< 0.00949 µM
same,"viability, T/C","second compound 0.01 µM, first compound 0.00949 µM",79.8%
same,"viability, T/C","second compound 0.01 µM, first compound 0.03 µM",64.2%
same,"viability, T/C","second compound 0.01 µM, first compound 0.0949 µM",53.6%
same,"viability, T/C","second compound 0.01 µM, first compound 0.3 µM",48.5%
same,"viability, T/C","second compound 0.01 µM, first compound 0.949 µM",38.1%
same,"viability, T/C","second compound 0.01 µM, first compound 3 µM",24.4%
same,"viability, T/C","second compound 0.0316 µM, first compound 0.00949 µM",54.8%
same,"viability, T/C","second compound 0.0316 µM, first compound 0.03 µM",46.3%
same,"viability, T/C","second compound 0.0316 µM, first compound 0.0949 µM",40.3%
same,"viability, T/C","second compound 0.0316 µM, first compound 0.3 µM",39%
same,"viability, T/C","second compound 0.0316 µM, first compound 0.949 µM",31.6%
same,"viability, T/C","second compound 0.0316 µM, first compound 3 µM",22%
same,"viability, T/C","second compound 0.1 µM, first compound 0.00949 µM",48.9%
same,"viability, T/C","second compound 0.1 µM, first compound 0.03 µM",42.7%
same,"viability, T/C","second compound 0.1 µM, first compound 0.0949 µM",39.5%
same,"viability, T/C","second compound 0.1 µM, first compound 0.3 µM",33.9%
same,"viability, T/C","second compound 0.1 µM, first compound 0.949 µM",28.5%
same,"viability, T/C","second compound 0.1 µM, first compound 3 µM",20.9%
same,"viability, T/C","second compound 0.316 µM, first compound 0.00949 µM",42.9%
same,"viability, T/C","second compound 0.316 µM, first compound 0.03 µM",41.7%
same,"viability, T/C","second compound 0.316 µM, first compound 0.0949 µM",35.9%
same,"viability, T/C","second compound 0.316 µM, first compound 0.3 µM",33%
same,"viability, T/C","second compound 0.316 µM, first compound 0.949 µM",24.6%
same,"viability, T/C","second compound 0.316 µM, first compound 3 µM",20.3%
same,"viability, T/C","second compound 1 µM, first compound 0.00949 µM",45.3%
same,"viability, T/C","second compound 1 µM, first compound 0.03 µM",43%
same,"viability, T/C","second compound 1 µM, first compound 0.0949 µM",36.5%
same,"viability, T/C","second compound 1 µM, first compound 0.3 µM",29.4%
same,"viability, T/C","second compound 1 µM, first compound 0.949 µM",26.3%
same,"viability, T/C","second compound 1 µM, first compound 3 µM",17.8%
